From publication PMC3731163 (MedChemComm, 2013)
Read-outs that look alike come from different tables or passages of the source.

Columns and labels:
H37Rv Mtb [1] = assay: Whole cell antitubercular activity; assay type: cell-based, Mycobacterium tuberculosis
Mtb Dxr [2] = target: T1, Mtb Dxr (Mycobacterium tuberculosis, UniProt P9WNS1); conditions: see also Supplementary Figure 1; cited from earlier work
H37Rv Mtb [3] = conditions: cited from earlier work
Mtb Dxr [4] = target: T1, Mtb Dxr; assay: Classical competition experiments; assay type: biochemical; conditions: double reciprocal plots

T1 sequence (P9WNS1 whole entry): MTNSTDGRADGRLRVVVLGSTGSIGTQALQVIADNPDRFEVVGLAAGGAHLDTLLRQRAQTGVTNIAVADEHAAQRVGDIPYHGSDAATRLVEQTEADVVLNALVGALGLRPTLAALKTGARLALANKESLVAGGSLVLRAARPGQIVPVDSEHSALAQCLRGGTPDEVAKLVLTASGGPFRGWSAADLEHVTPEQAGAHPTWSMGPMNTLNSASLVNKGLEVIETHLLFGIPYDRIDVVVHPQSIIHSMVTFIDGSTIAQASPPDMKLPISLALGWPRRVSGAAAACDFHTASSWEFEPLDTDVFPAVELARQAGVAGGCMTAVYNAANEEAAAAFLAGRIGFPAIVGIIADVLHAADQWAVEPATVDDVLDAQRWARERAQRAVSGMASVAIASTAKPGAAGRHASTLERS

Compound | inhibition of Mtb growth (in words) (H37Rv Mtb [1]) | mode of inhibition with respect to DXP (Mtb Dxr [2]) | further results
CCOP(=O)(CCCN(O)C(=O)CCCc1ccccc1)OCC [18b] | display measurable antitubercular activity | – | inhibition of Mtb growth (in words) (H37Rv Mtb [1]; listed as diethyl ester of 8): inhibits Mtb growth
O=CN(O)CCCP(=O)(O)O [Compound 1, Fosmidomycin] | do not inhibit Mtb | competitive | activity against Mtb (in words) (H37Rv Mtb [3]): inactive
CC(=O)N(O)CCCP(=O)([O-])O.[Na+] [Compound 2, FR900098] | do not inhibit Mtb | competitive | mode of inhibition relative to NADPH (Mtb Dxr [2]): uncompetitive
O=C(CCCc1ccccc1)N(O)CCCP(=O)([O-])O.[Na+] [Compound 8] | do not inhibit Mtb | – | mode of inhibition with respect to DXP (Mtb Dxr [4]): competitive; mode of inhibition with respect to NADPH (Mtb Dxr [4]): noncompetitive
CCOP(=O)(CCCN(O)C=O)OCC [Diethyl-1] | display measurable antitubercular activity | – | –
